# Experimental data published in patent publication US20100021505A1, “Composition and method to prevent or reduce diarrhea and steatorrhea in HIV patients” (priority 2008, published 2010).
# Entries after “also recorded” stand apart in the source; their conditions may differ.
# Key:
# pancrelipase [1] = test: Pancrelipase reactivation by colipase; type: biochemical; conditions: for % Lipase Activity with Colipase: colipase 5 μg/mL; for effect of added colipase on the inhibition of pancrelipase (in words): excess colipase added to reaction mixture
# Experimental: In brief, the above lipase assay procedure was used with the following variation: colipase solution replaced the distilled water so the concentration of colipase in the final reaction mixture was 5 μg/mL.
# pancrelipase [2] = target: T1, pancrelipase (Sus scrofa, UniProt P00591); test: Lipase assay (USP titrimetric): inhibition of pancrelipase by HAART drugs and excipients; type: biochemical
# T1 sequence (P00591 1-450): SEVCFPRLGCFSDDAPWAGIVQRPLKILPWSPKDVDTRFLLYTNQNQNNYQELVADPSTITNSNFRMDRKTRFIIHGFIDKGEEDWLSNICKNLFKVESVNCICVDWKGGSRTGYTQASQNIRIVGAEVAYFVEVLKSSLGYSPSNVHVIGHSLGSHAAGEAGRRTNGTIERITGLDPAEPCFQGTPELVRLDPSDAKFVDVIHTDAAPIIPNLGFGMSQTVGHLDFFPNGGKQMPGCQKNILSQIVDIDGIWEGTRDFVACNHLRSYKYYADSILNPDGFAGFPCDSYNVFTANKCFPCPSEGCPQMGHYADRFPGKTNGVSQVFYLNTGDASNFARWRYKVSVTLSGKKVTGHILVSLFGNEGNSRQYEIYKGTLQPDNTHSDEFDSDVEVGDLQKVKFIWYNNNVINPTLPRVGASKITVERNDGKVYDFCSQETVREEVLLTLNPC
# Experimental: The enzyme sources consisted of USP Reference Standard Pancrelipase, USP Reference Standard Trypsin, colipase (Sigma Chemical Co.), and enterokinase (ICN Biochemicals). Appropriate concentrations of enzyme reference standard were prepared in cold distilled water, as described in USP reference assay procedures. The Infectious Disease Clinic in Somerville, N.J. provided the HAART medications. Pure drugs could not be obtained so commercial drug preparations were used in the assays.
# One unit (U) of lipase activity is defined as the amount of enzyme that liberates one μequivalent of free fatty acid from triglycerides per minute at pH 9.0 and 37° C. Lipase activity (U/mg) was determined by a lipase specific titrimetric assay described in the United States Pharmacopeia (USP), Volume XXII. In brief, the substrate consists of 10% olive oil in acacia solution, 40-mg/mL sodium taurocholate, 0.075M calcium chloride, 0.05M Tris in 3.0M NaCl buffer solution (pH 7.5) and distilled water. The emulsified substrate is incubated at 37° C. and brought to pH 9.0 with 0.02N NaOH. At time zero, 1.0 mL of enzyme solution was added. A pH stat autotitrator was used to maintain pH 9.0 and the volume of 0.02 N NaOH dispensed per unit time was recorded for five (5) minutes. From the initial slope of this plot, lipase activity was calculated using the following equation: […]
# pancrelipase [3] = test: Recovery of pancrelipase activity after inhibition, by addition of excess lipase; type: biochemical
# Experimental: The above procedure was used to monitor pancrelipase activity with the exception that drug was not preincubated with the substrate. At time zero 1.0 mL of pancrelipase was added to initiate the reaction. At five (5) minutes, 1.0 mL of HAART drug solution was added to the reaction mixture to cause inhibition of lipase activity. At twelve (12) minutes an additional 1.0 mL of pancrelipase was added to the reaction mixture to overcome HAART inhibition. The reaction was monitored for twenty (20) minutes.
# HIV patients = conditions: Kakuda et al. 1998; cited from earlier work
Compound,% Lipase Activity No Colipase (pancrelipase [1]; Drug Conc. 0.002 mg/mL),% Lipase Activity with Colipase (pancrelipase [1]; Drug Conc. 0.002 mg/mL),effect of added colipase on the inhibition of pancrelipase (in words) (pancrelipase [1]),inhibition of pancrelipase (in words) (pancrelipase [2]),% Lipase Activity No Colipase (pancrelipase [1]; Drug Conc. 10.0 mg/mL),% Lipase Activity with Colipase (pancrelipase [1]; Drug Conc. 10.0 mg/mL),"% Pancrelipase Activity (pancrelipase [3]; after addition of drug solution at 5 minutes, before excess lipase)",% Reactivation of Pancrelipase (pancrelipase [3]; after additional 1.0 mL of pancrelipase at 12 minutes),HIV patients experiencing diarrhea (HIV patients)
"CCCCCCCCCCC[C@@H](C[C@@H]1OC(=O)[C@H]1CCCCCC)OC(=O)[C@H](CC(C)C)NC=O [ORLISTAT ®, reference compound]",37%,29%,no effect,–,–,–,–,–,–
D-α-tocopheryl polyethylene glycol 1000 succinate [TPGS],–,–,Pancrelipase inhibition was reversed; also recorded: restored pancrelipase activity,significant inhibition; also recorded: significantly inhibited,21%,79%,55%,98%,–
"Cc1c(O)cccc1C(=O)N[C@@H](CSc1ccccc1)[C@H](O)CN1C[C@H]2CCCC[C@H]2C[C@H]1C(=O)NC(C)(C)C [nelfinavir, Nelfinavir]",–,–,–,–,–,–,–,–,12-20%
